Literature values as cited in patent publication US20080009496A1, “MUTAGENIC HETEROCYCLES” (Koronis Pharmaceuticals, Inc., priority 2003, published 2008).

Tests used:
HIV = conditions: in vitro
[1] = deamination product of 5-aza-dC

Nc1ncn([C@H]2C[C@H](O)[C@@H](CO)O2)c(=O)n1 [5-aza-dC, 5-aza-2′-deoxycytidine]
inhibition of HIV replication (HIV): inhibit HIV replication in vitro

O=c1ncn([C@H]2C[C@H](O)[C@@H](CO)O2)c(=O)[nH]1 [5-aza-dU, 5-aza-2′-deoxyuridine]
antineoplastic activity [1]: loss of antineoplastic activity
